Experimental data reported in US6461997B1, “Triazole sulfones having herbicidal activity” (Monsanto Technology LLC, priority 1999, dated 2002).

Assays:
[1] = system: SOLNI (black nightshade); assay: Pre-plant incorporated (PPI) herbicidal activity, warm season; format: in vivo, Solanum nigrum; settings: for inhibition at 10 g/ha / inhibition at 30 g/ha / inhibition at 100 g/ha / inhibition at 300 g/ha / inhibition at 900 g/ha: Solanum nigrum, read-out: Percent inhibition SOLNI; for inhibition at 10 g/ha / inhibition at 30 g/ha / inhibition at 100 g/ha / inhibition at 300 g/ha / inhibition at 900 g/ha / Percent inhibition SOLNI: PPI application; for PPI activity (GR80) SOLNI: pre-plant incorporated, GR80 = lowest tested rate with 80% or greater inhibition, approx. 14 days after treating, 30/21° C.
Method: (§1) In another set of tests, the pre-plant incorporated (PPI) activity of compounds of this invention was evaluated on the same species as for the pre-emergence tests described above. In the PPI tests the following procedure, designed to simulate PPI application, was used.
(§2) A pre-prepared topsoil mixture (described above) was placed in a pot and compacted to a depth of 1.0 to 1.25 cm from the top of the pot. Seeds of each of several monocotyledonous and dicotyledonous annual plant species were placed on top of the soil. A sufficient quantity of soil to cover the seeds and level fill the pot was weighed into an open container. A known amount of the test compound was dissolved or suspended in an organic solvent and applied by spraying to this cover soil. The cover soil was thoroughly mixed to distribute the test compound throughout the cover soil, and was then applied as a cover layer over the seeds. Untreated soil was used as a cover layer for control pots. After treatment the plants were placed in a greenhouse where they received 0.64 cm of overhead irrigation. All subsequent watering consisted of a light overhead mist and/or subirrigation as needed for germination and growth. Tables 9 and 10 below relate to warm season plant species which were placed after pre-emergence treatment in a greenhouse with a 30/21° C. day/night temperature regime. Tables 11 and 12 below relates to cool season plant species placed after pre-emergence treatment in a greenhouse or growth chamber with an 18/13° C. day/night temperature regime. Only the compounds of Examples 1, 6, 8, 11, 13 and 15-20 were included in PPI tests.
(§3) Approximately 14 days after planting and treating, the plants were observed and herbicidal efficacy recorded as percent inhibition by comparison with untreated plants.

[2] = system: BROTE (downy brome); assay: Post-emergence herbicidal activity, cool season; format: in vivo, Bromus tectorum; settings: abraded plants sprayed at 300, 100, 30 and 10 g/ha; about 14 days after treatment
Method in brief: (§4)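 Abraded seedling foliage receives a spray of test compound at four rates, 300 to 10 g/ha, in 50:50 acetone/water at 3,100 l/ha. After about 14 days in an 18/13° C. day/night greenhouse, inhibition is scored against abraded untreated controls and expressed as GR80.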

[3] = system: AGSST (creeping bentgrass); assay: Post-emergence herbicidal activity, cool season; format: in vivo, Agrostis stolonifera; settings: abraded plants sprayed at 300, 100, 30 and 10 g/ha; about 14 days after treatment
Method in brief: as §4

[4] = system: POLCO (wild buckwheat); assay: Pre-emergence herbicidal activity, cool season; format: in vivo, Polygonum convolvulus; settings: lowest tested rate with 80% or greater inhibition; rates 300, 100, 30, 10 g/ha; about 14 days
Method in brief: (§5)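 Read-out: GR80, derived from percent growth inhibition relative to untreated plants at roughly 14 days after planting and treatment. Compounds went onto the surface of freshly seeded soil at 10–300 g/ha. Day/night regimes were 30/21 °C for millet and crabgrass, 18/13 °C for blackgrass and buckwheat.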

[5] = system: PANMI (wild proso millet); assay: Pre-emergence herbicidal activity, warm season; format: in vivo, Panicum miliaceum; settings: for Pre-emergence activity (GR80) PANMI: GR80 = lowest tested rate (300, 100, 30, 10 g/ha) with 80% or greater inhibition, approx. 14 days after treating, 30/21° C.; for inhibition at 10 g/ha / inhibition at 30 g/ha / inhibition at 100 g/ha / inhibition at 300 g/ha / inhibition at 900 g/ha: Panicum miliaceum, pre-emergence application, read-out: Percent inhibition, weed PANMI
Method in brief: as §5

[6] = system: PANDI (fall panicum); assay: Pre-emergence herbicidal activity, warm season; format: in vivo, Panicum dichotomiflorum; settings: GR80 = lowest tested rate (300, 100, 30, 10 g/ha) with 80% or greater inhibition; approx. 14 days after treating; 30/21° C.
Method in brief: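 Activity is expressed as the rate giving 80% inhibition, with 300, 100, 30 and 10 g/ha typically tested. An asterisk marks activity short of 80% at the top rate. Warm-season grasses were held at 30/21 °C; cool-season blackgrass and wild buckwheat at 18/13 °C; scoring at about 14 days.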

[7] = system: POAAN (annual bluegrass); assay: Pre-plant incorporated (PPI) herbicidal activity, cool season; format: in vivo, Poa annua; settings: weed, PPI application
Method: as §1, §2, §3

[8] = system: BROTE (downy brome); assay: as above; format: in vivo, Bromus tectorum; settings: for PPI activity GR80, BROTE: pre-plant incorporated, lowest tested rate with 80% or greater inhibition, about 14 days
Method: as §1, §2, §3

[9] = weed, PPI application, 100 g/ha
[10] = weed, PPI application, 300 g/ha
[11] = weed, PPI application, 900 g/ha

| Compound | PPI activity (GR80) SOLNI [1] [g/ha] | Post-emergence activity GR80, BROTE [2] | Post-emergence activity GR80, AGSST [3] | Pre-emergence activity GR80, POLCO [4] | Pre-emergence activity (GR80) PANMI [5] [g/ha] | Pre-emergence activity (GR80) PANDI [6] [g/ha] | PPI activity GR80, BROTE [8] | Percent inhibition SOLNI ([1]; 10 g/ha) [%] | Percent inhibition SOLNI ([1]; 30 g/ha) [%] | Percent inhibition SOLNI ([1]; 100 g/ha) [%] | Percent inhibition SOLNI ([1]; 300 g/ha) [%] | Percent inhibition SOLNI ([1]; 900 g/ha) [%] | Percent inhibition POAAN ([7]; 10 g/ha) [%] | Percent inhibition POAAN ([7]; 30 g/ha) [%] | Percent inhibition POAAN ([7]; 100 g/ha) [%] | Percent inhibition POAAN ([7]; 300 g/ha) [%] | Percent inhibition POAAN ([7]; 900 g/ha) [%] | Percent inhibition BROTE ([8]; weed, PPI application, 10 g/ha) [%] | Percent inhibition BROTE ([8]; weed, PPI application, 30 g/ha) [%] | Percent inhibition BROTE [8, 9] [%] | further results |
| --- | --- | --- | --- | --- | --- | --- | --- | --- | --- | --- | --- | --- | --- | --- | --- | --- | --- | --- | --- | --- | --- |
| CCN(CC)C(=O)n1cnc(S(=O)(=O)C(F)(F)Br)n1 [Example 1, 3-(bromodifluoromethylsulfonyl)-1-(N,N-diethylcarbamoyl)-1,2,4-triazole] | 30 | [empty] | [empty] | [empty] | 100 | 30 | 300 g/ha | – | – | – | – | – | – | – | – | – | – | – | – | – | inhibition at 10 g/ha ([1]; 10 g/ha): 0%; inhibition at 30 g/ha ([1]; 30 g/ha): 0%; inhibition at 100 g/ha ([1]; 100 g/ha): 0%; inhibition at 300 g/ha ([1]; 300 g/ha): 75%; inhibition at 900 g/ha ([1]; 900 g/ha): 100%; inhibition at 10 g/ha [5]: 0%; inhibition at 30 g/ha [5]: 0%; inhibition at 100 g/ha [5]: 30%; inhibition at 300 g/ha [5]: 100%; inhibition at 900 g/ha [5]: 90%; inhibition at 30 g/ha ([7]; Poa annua, 30 g/ha, read-out: Percent inhibition POAAN): 90%; inhibition at 100 g/ha ([7]; Poa annua, 100 g/ha, read-out: Percent inhibition POAAN): 99%; inhibition at 300 g/ha ([7]; Poa annua, 300 g/ha, read-out: Percent inhibition POAAN): 100%; inhibition at 900 g/ha ([7]; Poa annua, 900 g/ha, read-out: Percent inhibition POAAN): 100%; inhibition at 30 g/ha ([8]; Bromus tectorum, weed, PPI application, 30 g/ha, read-out: Percent inhibition BROTE): 0%; inhibition at 100 g/ha ([8]; Bromus tectorum, weed, PPI application, 100 g/ha, read-out: Percent inhibition BROTE): 20%; inhibition at 300 g/ha ([8]; Bromus tectorum, weed, PPI application, 300 g/ha, read-out: Percent inhibition BROTE): 50%; inhibition at 900 g/ha ([8]; Bromus tectorum, weed, PPI application, 900 g/ha, read-out: Percent inhibition BROTE): 100% |
| CCN(CC)C(=O)n1cnc(S(=O)(=O)C(F)(F)SCc2ccccc2)n1 [Example 10] | – | [empty] | [empty] | [empty] | 300 | 300 | – | 20 | 60 | 100 | 80 | 100 | 0 | 10 | 95 | 100 | 100 | 0 | 0 | 10 | Percent inhibition BROTE [8, 10]: 35%; Percent inhibition BROTE [8, 11]: 60% |
| CCN(CC)C(=O)n1cnc(S(=O)(=O)C(F)(F)SCC(=O)OC)n1 [Example 11] | 300 | [empty] | [empty] | [empty] | 300 | 300 | [empty] | 0 | 0 | 30 | 50 | 100 | 0 | 0 | 0 | 0 | 70 | 0 | 0 | 0 | Percent inhibition BROTE [8, 10]: 0%; Percent inhibition BROTE [8, 11]: 20% |
| CCN(CC)C(=O)n1cnc(S(=O)(=O)C(F)(F)SCCOC)n1 [Example 13] | 100 | [empty] | [empty] | [empty] | 300 | 300 | * (activity observed, at least at highest rate, but <80% inhibition) | 0 | 30 | 60 | 95 | 100 | 0 | 50 | 90 | 100 | 95 | 0 | 0 | 10 | Percent inhibition BROTE [8, 10]: 20%; Percent inhibition BROTE [8, 11]: 85% |
| CCN(CC)C(=O)n1cnc(S(=O)(=O)C(F)F)n1 [Example 15, 1-(N,N-diethylcarbamoyl)-3-(difluoromethylsulfonyl)-1,2,4-triazole] | 100 | [empty] | [empty] | – | 30 | 100 | * (activity observed, at least at highest rate, but <80% inhibition) | – | – | – | – | – | – | – | – | – | – | – | – | – | inhibition at 10 g/ha ([1]; 10 g/ha): 0%; inhibition at 30 g/ha ([1]; 30 g/ha): 0%; inhibition at 100 g/ha ([1]; 100 g/ha): 20%; inhibition at 300 g/ha ([1]; 300 g/ha): 100%; inhibition at 900 g/ha ([1]; 900 g/ha): 99%; inhibition at 10 g/ha [5]: 0%; inhibition at 30 g/ha [5]: 0%; inhibition at 100 g/ha [5]: 20%; inhibition at 300 g/ha [5]: 40%; inhibition at 900 g/ha [5]: 99% |
